Measurements taken from patent EP1247803A2, “Indolinone compounds suitable for modulation of protein kinases” (Sugen, Inc., priority 1996, dated 1998).

Columns and labels:
[1] = target: T1, EGFR (Homo sapiens, UniProt P00533); test: EGFR ELISA assay (in vitro kinase activity, EGFR captured from A431 cell lysate); assay type: biochemical; parameters: concentration or dose not given beside the values
T1 construct: Add 7 ug A431 cell lysate per well (EGFR source); endogenous in cells; host or cells: A431
How it was run: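 EGFR from A431 lysate was captured on anti-EGFR antibody-coated plates and preincubated with compounds for 30 min. Autophosphorylation ran 5 min with 3 uM ATP and 5 mM MnCl2 (final), stopped with 20 mM EDTA. Phosphotyrosine was detected by anti-pTyr ELISA with ABTS/H2O2, read at 410 nm.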

[2] = system: MET; test: MET biochemical kinase assay; parameters: species or system human; concentration or dose not given beside the values
How it was run: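 Plates coated with anti-rabbit Fc bind a rabbit anti-MET antibody that captures receptor from cell lysates; unbound protein is washed off before compound and ATP-containing kinase buffer go in.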

T1 sequence (P00533 25-1210): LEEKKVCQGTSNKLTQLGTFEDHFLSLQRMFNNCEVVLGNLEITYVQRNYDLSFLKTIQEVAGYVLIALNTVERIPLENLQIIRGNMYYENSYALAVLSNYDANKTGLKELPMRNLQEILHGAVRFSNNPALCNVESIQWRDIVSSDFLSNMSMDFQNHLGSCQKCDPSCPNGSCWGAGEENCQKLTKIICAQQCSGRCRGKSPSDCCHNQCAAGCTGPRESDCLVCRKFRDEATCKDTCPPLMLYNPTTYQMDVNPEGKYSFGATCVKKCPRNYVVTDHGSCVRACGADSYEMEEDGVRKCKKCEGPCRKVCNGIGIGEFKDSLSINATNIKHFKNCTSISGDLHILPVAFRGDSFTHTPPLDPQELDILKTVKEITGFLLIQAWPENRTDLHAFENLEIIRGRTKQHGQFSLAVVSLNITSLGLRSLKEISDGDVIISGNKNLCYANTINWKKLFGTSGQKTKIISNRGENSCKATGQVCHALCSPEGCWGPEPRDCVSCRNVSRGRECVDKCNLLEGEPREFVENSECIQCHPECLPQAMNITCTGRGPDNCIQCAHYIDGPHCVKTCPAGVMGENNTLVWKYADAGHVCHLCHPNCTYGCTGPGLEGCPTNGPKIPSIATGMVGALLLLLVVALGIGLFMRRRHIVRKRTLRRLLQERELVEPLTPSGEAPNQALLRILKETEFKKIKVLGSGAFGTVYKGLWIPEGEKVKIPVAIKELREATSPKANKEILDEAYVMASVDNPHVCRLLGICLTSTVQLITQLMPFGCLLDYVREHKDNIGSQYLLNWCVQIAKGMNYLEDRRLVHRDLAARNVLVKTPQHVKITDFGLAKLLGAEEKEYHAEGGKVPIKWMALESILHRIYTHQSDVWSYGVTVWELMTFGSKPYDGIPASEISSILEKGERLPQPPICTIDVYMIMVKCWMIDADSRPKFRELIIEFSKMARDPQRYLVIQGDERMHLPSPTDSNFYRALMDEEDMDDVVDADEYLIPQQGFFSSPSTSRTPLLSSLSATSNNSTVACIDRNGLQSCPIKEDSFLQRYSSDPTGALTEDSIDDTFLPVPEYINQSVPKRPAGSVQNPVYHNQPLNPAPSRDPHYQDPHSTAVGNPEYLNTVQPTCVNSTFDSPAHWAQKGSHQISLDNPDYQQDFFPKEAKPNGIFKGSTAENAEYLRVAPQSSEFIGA

Row | SMILES | Biochem EGFR %Inhibition [1] [%] | Met Kinase % Inhibition [2] [%]
1 | O=C1Nc2c(Br)cc(Br)cc2C1=Cc1cccs1 [10717/A03] | 1.0 | 54.6
2 | CCOc1ccccc1C=C1C(=O)Nc2ccc(S(=O)(=O)NC)cc21 [10717/D02] | 10.1 | 28.6
3 | CNS(=O)(=O)c1ccc2c(c1)C(=Cc1cccs1)C(=O)N2 [10717/D03] | -1.4 | 11.1
4 | CNS(=O)(=O)c1ccc2c(c1)C(=Cc1cccn1C)C(=O)N2 [10717/D04] | 4.9 | 21.0
5 | CNS(=O)(=O)c1ccc2c(c1)C(=Cc1ccc(F)cc1)C(=O)N2 [10717/D05] | -2.8 | 23.8
6 | CNS(=O)(=O)c1ccc2c(c1)C(=Cc1c[nH]c3ccccc13)C(=O)N2 [10717/D06] | -23.4 | 33.8
7 | CNS(=O)(=O)c1ccc2c(c1)C(=Cc1ccc(C)s1)C(=O)N2 [10717/D07] | -4.5 | 16.8
8 | CNS(=O)(=O)c1ccc2c(c1)C(=Cc1ccc(Br)cc1)C(=O)N2 [10717/D08] | -7.8 | 16.0
9 | CNS(=O)(=O)c1ccc2c(c1)C(=Cc1ccc[nH]1)C(=O)N2 [10717/D09] | 6.8 | 29.1
10 | CNS(=O)(=O)c1ccc2c(c1)C(=Cc1c(O)cccc1OC)C(=O)N2 [10717/D10] | 3.5 | 15.6
11 | CNS(=O)(=O)c1ccc2c(c1)C(=Cc1cc(Br)c(O)c(C(C)(C)C)c1)C(=O)N2 [10721/D10] | 3.3 | 13.4
12 | CNS(=O)(=O)c1ccc2c(c1)C(=Cc1cc(C(C)(C)C)c(O)c(C(C)(C)C)c1)C(=O)N2 [10721/D11] | 22.2 | 23.2
13 | Cn1c(C=C2C(=O)Nc3ccc(S(=O)(=O)Nc4ccc(C(F)(F)F)cc4)cc32)nc2ccccc21 [10721/E02] | -9.5 | 38.8
14 | Cn1cc(Cl)c(C=C2C(=O)Nc3ccc(S(=O)(=O)Nc4ccc(C(F)(F)F)cc4)cc32)n1 [10721/E03] | 25.1 | 12.3
15 | Cc1cc(C=C2C(=O)Nc3ccc(S(=O)(=O)Nc4ccc(C(F)(F)F)cc4)cc32)sc1C [10721/E04] | 48.5 | 87.3
16 | O=C1Nc2ccc(S(=O)(=O)Nc3ccc(C(F)(F)F)cc3)cc2C1=Cc1cc2c([nH]1)CCCC2 [10721/E05] | 61.3 | 69.9
17 | O=C1Nc2ccc(S(=O)(=O)Nc3ccc(C(F)(F)F)cc3)cc2C1=Cc1cc([N+](=O)[O-])cc(CCl)c1O [10721/E06] | 91.5 | 81.0
18 | O=C1Nc2ccc(S(=O)(=O)Nc3ccc(C(F)(F)F)cc3)cc2C1=Cc1ccc(Cl)s1 [10721/E07] | 37.7 | 43.6
19 | Cc1cc(C)c(C=C2C(=O)Nc3ccc(S(=O)(=O)Nc4ccc(C(F)(F)F)cc4)cc32)[nH]1 [10721/E08] | 29.8 | 39.5
20 | CC(C)(C)c1cc(C=C2C(=O)Nc3ccc(S(=O)(=O)Nc4ccc(C(F)(F)F)cc4)cc32)ccc1O [10721/E09] | 42.5 | 0.7

Row | SMILES | Biochem EGFR %Inhibition [1] [%] | Met Kinase % Inhibition [2] [%]
21 | CC(C)(C)c1cc(C=C2C(=O)Nc3ccc(S(=O)(=O)Nc4ccc(C(F)(F)F)cc4)cc32)cc(Br)c1O [10721/E10] | 19.9 | 55.7
22 | CC(C)(C)c1cc(C=C2C(=O)Nc3ccc(S(=O)(=O)Nc4ccc(C(F)(F)F)cc4)cc32)cc(C(C)(C)C)c1O [10721/E11] | 32.1 | 31.3
23 | Cn1c(C=C2C(=O)Nc3ccc(S(=O)(=O)N4CCOCC4)cc32)nc2ccccc21 [10721/F02] | 11.0 | 27.8
24 | Cn1cc(Cl)c(C=C2C(=O)Nc3ccc(S(=O)(=O)N4CCOCC4)cc32)n1 [10721/F03] | 7.0 | 40.6
25 | Cc1cc(C=C2C(=O)Nc3ccc(S(=O)(=O)N4CCOCC4)cc32)sc1C [10721/F04] | 0.0 | 26.0
26 | O=C1Nc2ccc(S(=O)(=O)N3CCOCC3)cc2C1=Cc1cc2c([nH]1)CCCC2 [10721/F05] | 20.5 | 67.8
27 | O=C1Nc2ccc(S(=O)(=O)N3CCOCC3)cc2C1=Cc1cc([N+](=O)[O-])cc(CCl)c1O [10721/F06] | 21.7 | 80.3
28 | O=C1Nc2ccc(S(=O)(=O)N3CCOCC3)cc2C1=Cc1ccc(Cl)s1 [10721/F07] | 3.5 | 55.7
29 | Cc1cc(C)c(C=C2C(=O)Nc3ccc(S(=O)(=O)N4CCOCC4)cc32)[nH]1 [10721/F08] | 37.3 | 76.1
30 | CC(C)(C)c1cc(C=C2C(=O)Nc3ccc(S(=O)(=O)N4CCOCC4)cc32)ccc1O [10721/F09] | 7.0 | 52.5
31 | CC(C)(C)c1cc(C=C2C(=O)Nc3ccc(S(=O)(=O)N4CCOCC4)cc32)cc(Br)c1O [10721/F10] | 7.5 | 79.9
32 | CC(C)(C)c1cc(C=C2C(=O)Nc3ccc(S(=O)(=O)N4CCOCC4)cc32)cc(C(C)(C)C)c1O [10721/F11] | 95.9 | 78.2
33 | Cn1c(C=C2C(=O)Nc3ccc(CCCl)cc32)nc2ccccc21 [10721/G02] | 23.6 | 7.9
34 | Cn1cc(Cl)c(C=C2C(=O)Nc3ccc(CCCl)cc32)n1 [10721/G03] | 23.4 | 25.3
35 | Cc1cc(C=C2C(=O)Nc3ccc(CCCl)cc32)sc1C [10721/G04] | 64.6 | 90.3
36 | O=C1Nc2ccc(CCCl)cc2C1=Cc1cc2c([nH]1)CCCC2 [10721/G05] | 7.7 | 8.6
37 | O=C1Nc2ccc(CCCl)cc2C1=Cc1cc([N+](=O)[O-])cc(CCl)c1O [10721/G06] | 23.2 | 39.5
38 | O=C1Nc2ccc(CCCl)cc2C1=Cc1ccc(Cl)s1 [10721/G07] | 14.7 | 10.0
39 | Cc1cc(C)c(C=C2C(=O)Nc3ccc(CCCl)cc32)[nH]1 [10721/G08] | 12.8 | -2.4
40 | CC(C)(C)c1cc(C=C2C(=O)Nc3ccc(CCCl)cc32)ccc1O [10721/G09] | 14.9 | 5.1

Row | SMILES | Biochem EGFR %Inhibition [1] [%] | Met Kinase % Inhibition [2] [%]
41 | CC(C)(C)c1cc(C=C2C(=O)Nc3ccc(CCCl)cc32)cc(Br)c1O [10721/G10] | 2.1 | 12.0
42 | CC(C)(C)c1cc(C=C2C(=O)Nc3ccc(CCCl)cc32)cc(C(C)(C)C)c1O [10721/G11] | 0.4 | -0.0
43 | CC(C)(C)c1cc(C=C2C(=O)Nc3c(Br)cc(Br)cc32)cc([N+](=O)[O-])c1O [10722/A02] | 23.7 | 44.9
44 | O=C1Nc2c(Br)cc(Br)cc2C1=Cc1c(O)cc(O)cc1O [10722/A03] | 0.8 | 90.3
45 | O=C1Nc2c(Br)cc(Br)cc2C1=Cc1ccc([N+](=O)[O-])s1 [10722/A04] | 21.0 | 51.4
46 | O=C1Nc2c(Br)cc(Br)cc2C1=Cc1ccc(C(=O)O)cc1 [10722/A05] | 22.4 | 90.5
47 | O=C1Nc2c(Br)cc(Br)cc2C1=Cc1ccc(F)cc1F [10722/A06] | 28.4 | 71.6
48 | Cc1cc(C=C2C(=O)Nc3c(Br)cc(Br)cc32)cc(C)c1O [10722/A07] | 29.9 | 64.1
49 | CC(C)(C)c1cc(C=C2C(=O)Nc3c(Br)cc(Br)cc32)cc(Cl)c1O [10722/A08] | 23.9 | 70.5
50 | O=C1Nc2c(Br)cc(Br)cc2C1=Cc1csc([N+](=O)[O-])c1 [10722/A09] | 16.8 | 86.5
51 | CCCCN(CCCC)c1ccc(C=C2C(=O)Nc3c(Br)cc(Br)cc32)cc1 [10722/A10] | -4.2 | 79.0
52 | O=C1Nc2c(Br)cc(Br)cc2C1=Cc1ccc(C(F)(F)F)cc1 [10722/A11] | -0.1 | 68.6
53 | CC(C)(C)c1cc(C=C2C(=O)Nc3ccc(I)cc32)cc([N+](=O)[O-])c1O [10722/B02] | 16.3 | 44.3
54 | O=C1Nc2ccc(I)cc2C1=Cc1c(O)cc(O)cc1O [10722/B03] | 19.6 | 40.1
55 | O=C1Nc2ccc(I)cc2C1=Cc1ccc([N+](=O)[O-])s1 [10722/B04] | 10.6 | 53.4
56 | O=C1Nc2ccc(I)cc2C1=Cc1ccc(C(=O)O)cc1 [10722/B05] | 9.3 | 67.2
57 | O=C1Nc2ccc(I)cc2C1=Cc1ccc(F)cc1F [10722/B06] | -4.9 | 72.6
58 | CC(C)(C)c1cc(C=C2C(=O)Nc3ccc(I)cc32)cc(Cl)c1O [10722/B08] | 0.5 | 72.0
